# Assay results reported in ChEMBL document CHEMBL1133725, “Modeling of kappa-opioid receptor/agonists interactions using pharmacophore-based and docking simulations” (J Med Chem, 2000).
# pKi: −log10 of the molar value.
# What was measured:
# [1] = target: T1, Kappa-type opioid receptor (Cavia porcellus, UniProt P41144); test: Inhibition of [3H]U-69593 binding to Opioid receptor kappa 1 in guinea pig brain homogenates; type: tissue-based
# [2] = target: T1, Kappa-type opioid receptor; test: Inhibition of [3H]diprenorphine binding to Opioid receptor kappa 1 in guinea pig cerebellar fraction
# [3] = target: T1, Kappa-type opioid receptor; test: Inhibition of [3H]EKC binding to Opioid receptor kappa 1 in guinea pig forebrain
# T1 sequence (P41144 whole entry): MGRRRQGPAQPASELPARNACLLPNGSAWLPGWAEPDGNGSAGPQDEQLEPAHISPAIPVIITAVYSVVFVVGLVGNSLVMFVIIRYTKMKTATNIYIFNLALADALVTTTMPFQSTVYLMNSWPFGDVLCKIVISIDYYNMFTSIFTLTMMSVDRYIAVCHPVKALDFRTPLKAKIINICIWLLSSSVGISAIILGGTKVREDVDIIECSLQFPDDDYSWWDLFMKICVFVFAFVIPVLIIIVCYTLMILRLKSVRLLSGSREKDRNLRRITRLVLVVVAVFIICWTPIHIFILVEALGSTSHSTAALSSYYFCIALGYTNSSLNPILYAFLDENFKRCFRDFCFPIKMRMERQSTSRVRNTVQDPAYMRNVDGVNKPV
Compound,pKi [1],further results
O=C([C@@H]1CCc2cc(Cl)c(Cl)cc21)N1CCSC[C@H]1CN1CCCC1,9.36,–
CN1CCCC1[C@@H]1CCCCN1C(=O)Cc1ccc(Cl)c(Cl)c1 (stereo not given in full),9.48,–
COC(=O)[C@]1(c2ccccc2)C[C@@H]1CN1CC[C@@]2(C)c3cc(O)ccc3CC1[C@@H]2C,–,pKi [2]: 6.62
O=C1N(c2ccc(Cl)c(Cl)c2)CCCN1[C@H](CN1CCCC1)c1ccccc1,9.38,–
O=C1[C@@H](c2ccc(Cl)c(Cl)c2)CCN1[C@H]1CCCC[C@@H]1N1CCCC1,–,pKi [3]: 8.00
